Source: patent publication US20220170096A1, “INTERLEUKIN-4-INDUCED GENE 1 (IL4I1) AS A BIOMARKER AND USES THEREOF” (DEUTSCHES KREBSFORSCHUNGSZENTRUM STIFTUNG DES OEFFENTLICHEN …, priority 2019, published 2022)

Legend:
GFP-tagged Ahr = target: T1, GFP-tagged Ahr (Mus musculus, UniProt P30561); test: AHR nuclear translocation assay in GFP-Ahr expressing tao BpRc1c cells; format: cell-based, murine; conditions: 25 μM, 4 h
T1 construct: expressed in transfected cells; host or cells: murine hepatoma tao BpRc1 cells (deficient of endogenous Ahr), retroviral transfection, tet-off system
T1 sequence (P30561 10-848): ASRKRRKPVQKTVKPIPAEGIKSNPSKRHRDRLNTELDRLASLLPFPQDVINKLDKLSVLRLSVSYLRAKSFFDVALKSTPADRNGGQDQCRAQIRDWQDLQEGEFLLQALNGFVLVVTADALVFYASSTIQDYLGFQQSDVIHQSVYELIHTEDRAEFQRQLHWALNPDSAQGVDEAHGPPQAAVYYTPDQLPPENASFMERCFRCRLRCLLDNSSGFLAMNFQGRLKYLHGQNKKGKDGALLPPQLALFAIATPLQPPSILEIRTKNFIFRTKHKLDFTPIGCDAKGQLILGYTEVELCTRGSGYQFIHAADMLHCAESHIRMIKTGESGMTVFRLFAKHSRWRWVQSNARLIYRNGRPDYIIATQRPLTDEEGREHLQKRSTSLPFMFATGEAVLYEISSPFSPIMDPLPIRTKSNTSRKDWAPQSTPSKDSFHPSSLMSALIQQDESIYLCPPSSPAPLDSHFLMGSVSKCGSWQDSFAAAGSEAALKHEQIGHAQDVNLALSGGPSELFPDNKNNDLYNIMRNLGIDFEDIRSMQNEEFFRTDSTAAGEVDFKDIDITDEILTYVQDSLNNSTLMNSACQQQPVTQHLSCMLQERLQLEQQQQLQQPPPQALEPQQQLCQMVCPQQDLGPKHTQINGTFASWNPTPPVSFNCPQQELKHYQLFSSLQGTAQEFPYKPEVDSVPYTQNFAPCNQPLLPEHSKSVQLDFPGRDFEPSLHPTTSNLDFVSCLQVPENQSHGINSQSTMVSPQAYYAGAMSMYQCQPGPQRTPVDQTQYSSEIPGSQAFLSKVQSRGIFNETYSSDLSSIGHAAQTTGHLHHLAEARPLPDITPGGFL
Protocol: Stably transfected tao BpRc1c cells, expressing a GFP-tagged Ahr under tetracycline control, were used to visualize nuclear translocation of Ahr.
For induction of GFP-Ahr expression in the transgenic tao BpRc1c cells, cells were taken off tetracycline 24 h before translocation assays. Assays were performed in black clear bottom 96-well plates (BD, #353219) with 7500 cells/well in 150 μl/well. Metabolites were added in 50 μL/well induction medium. Cells were exposed for 4h to 25 μM PP, HPP, and I3P respectively. Medium was discarded and cells fixed with pre-warmed 3.7% formaldehyde in PBS (10 min at RT). After fixation cells were washed with detergent buffer (DB, 0.01% Tween20 in PBS, Sigma Aldrich), followed by permeabilization with 0.1% Triton X-100 in PBS (Sigma Aldrich) for 15 min at RT. Cells were washed twice with DB and incubated with 0.4 ng/ml Hoechst 33342 (Sigma Aldrich) for 30 min at RT protected from light. After washing with DB and PBS cells were stored in PBS at 4° C. until translocation analysis. Translocation by KynA was monitored by live cell imaging after 3 h of exposure including the appropriate negative medium control. Translocation of Ahr by the different metabolites was monitored on a BD Pathway Imager 855.

U-87MG cells = test: Metabolites in supernatants of U-87MG cells treated with I3P; format: cell-based, human; conditions: increasing concentrations of I3P, 24 h
Protocol: For treatment of adherent cells with established and hypothetical AHR ligands, 4×10^5 cells per well were seeded in six well plates and incubated for 24 h prior to treatment. Non-adherent cells were seeded in 24 well plates at 5×10^5 cells in 1 mL and treated immediately. For verification of the generated AHR signature, cells were treated with the established AHR agonist Kyn (50 μM, SigmaAldrich, K8625) for 24 h. In order to investigate the potential of direct and downstream IL4I1 metabolites to activate the AHR, cells were treated with […] When using the AHR antagonist SR1 (1 μM, Merck Millipore, 182706), cells were treated for 24 h alone or in combination with AHR ligands. […] Consumption of phenylalanine, tyrosine and Trp by IL4I1-expressing and non-expressing U-87MG and U-251MG cells was assessed by quantification of the amino acids in the cell culture supernatants after 120 h incubation. […] The derivatization product was separated at 42° C. on an Acquity BEH C18 column (Waters) using an Acquity H-class UPLC system (Waters) coupled to an Acquity fluorescence detector (FLR) (Waters). Samples were analyzed on the UPLC as described before by Yang et. al., 2015^21. […] Trp was detected by fluorescence (Acquity FLR detector, Waters, excitation: 254 nm, emission: 401 nm). Standards were used for quantification (Sigma). […] For targeted quantification of the metabolites, MRM mode was used. […]

AHR = AHR target gene expression (microarray, qRT-PCR) in glioblastoma cells treated with IL4I1 metabolites; format: cell-based, human; conditions: U-87MG cells; for modulation of AHR target genes / AHR activation signature genes: 40 μM for 24 h (microarray), TIPARP mRNA 24 h; for induction of the AHR target gene TIPARP (mRNA): 24 h, KynA 50 μM
Protocol: Array datasets—The affymetrix microarray chips “human gene 2.0 ST” were analyzed using the oligo package and annotated using NetAffx (14). Raw CEL files were RMA normalized and summarized. Differential gene expression was performed using the limma pipeline for microarrays (15).
For treatment of adherent cells with established and hypothetical AHR ligands, 4×10^5 cells per well were seeded in six well plates and incubated for 24 h prior to treatment. Non-adherent cells were seeded in 24 well plates at 5×10^5 cells in 1 mL and treated immediately. For verification of the generated AHR signature, cells were treated with the established AHR agonist Kyn (50 μM, SigmaAldrich, K8625) for 24 h. […] When using the AHR antagonist SR1 (1 μM, Merck Millipore, 182706), cells were treated for 24 h alone or in combination with AHR ligands.
Total RNA was harvested from cultured cells using the RNeasy Mini Kit (Qiagen, 80204) followed by cDNA synthesis using the High Capacity cDNA reverse transcriptase kit (Applied Biosystems, 4368813). A StepOne Plus real-time PCR system (Applied Biosystems) was used to perform real-time PCR of cDNA samples using SYBR Select Master mix (Thermo Scientific, 4309155). Data was processed and analysed using the StepOne Software v 2.3. Relative quantification of target genes was done against RNA18S as reference gene using the […] method.

[1] = Conversion of I3P to kynurenic acid in PBS with or without H2O2 (HPLC); format: physicochemical; conditions: 3.33 mg/mL I3P in PBS, 24 h, with or without 1 mM H2O2
Protocol: Black, lowest peak: 3.33 mg/mL I3P in phosphate buffered saline (PBS) incubated for 24 h. Grey peak: 3.33 mg/mL I3P incubated in PBS in the presence of 1 mM H2O2 for 24 h (n=2). c-e, TIPARP mRNA expression in U-87MG cells treated with IAA (c), ILA (d), I3CA (e) or vehicle for 24 h (n=3). f, TIPARP mRNA expression in shCtrl and shAHR U-87MG cells treated with 50 μM KynA or vehicle for 24 h (n=3). g, Representative images of GFP-Ahr expressing tao BpRc1c cells treated with either vehicle or 50 μM KynA for 1 h. n values represent independent experiments. Data are presented as mean±S.E.M and were analyzed by two-tailed paired student's t-test (a, b, h) or repeated measures ANOVA with Dunnett's multiple comparisons test (c, e-g). *P<0.05, **P<0.01, ***P<0.001, ****P<0.0001. n.s., not significant.

Row | nuclear translocation of the AHR (GFP-tagged Ahr) | IAA, I3CA and kynurenic acid in the cell supernatants after treatment (U-87MG cells) | Structure (SMILES) | modulation of AHR target genes / AHR activation signature genes (AHR) | formation of kynurenic acid from I3P [1] | induction of the AHR target gene TIPARP (mRNA) (AHR)
1 | observed only in response to I3P | dose-dependent increase | O=C(O)C(=O)Cc1c[nH]c2ccccc12 [I3P, indole-3-pyruvic acid] | significant regulation | formed spontaneously from I3P, which was enhanced in the presence of H2O2 | –
2 | – | – | O=C(O)C(=O)Cc1ccccc1 [PP, phenylpyruvic acid] | did not elicit relevant modulation | – | –
3 | – | – | O=C(O)C(O)Cc1c[nH]c2ccccc12 (stereo not shown) [I3L, indole-3-lactic acid] | – | – | did not observe relevant induction
4 | – | – | O=Cc1c[nH]c2ccccc12 [I3CA, indole-3-carboxaldehyde] | – | – | induced TIPARP transcripts
